How the values were obtained:
[1] = biological target: T1, NEK2 kinase (Accession No. NP-002488) (Homo sapiens, UniProt P51955); experiment: HotSpot Kinase Assay, NEK2; type: biochemical; conditions: HotSpot Kinase Assay; read-out: NEK2 IC50
T1 construct: purchased ThermoFisher Scientific (Invitrogen)
T1 sequence (P51955 1-445): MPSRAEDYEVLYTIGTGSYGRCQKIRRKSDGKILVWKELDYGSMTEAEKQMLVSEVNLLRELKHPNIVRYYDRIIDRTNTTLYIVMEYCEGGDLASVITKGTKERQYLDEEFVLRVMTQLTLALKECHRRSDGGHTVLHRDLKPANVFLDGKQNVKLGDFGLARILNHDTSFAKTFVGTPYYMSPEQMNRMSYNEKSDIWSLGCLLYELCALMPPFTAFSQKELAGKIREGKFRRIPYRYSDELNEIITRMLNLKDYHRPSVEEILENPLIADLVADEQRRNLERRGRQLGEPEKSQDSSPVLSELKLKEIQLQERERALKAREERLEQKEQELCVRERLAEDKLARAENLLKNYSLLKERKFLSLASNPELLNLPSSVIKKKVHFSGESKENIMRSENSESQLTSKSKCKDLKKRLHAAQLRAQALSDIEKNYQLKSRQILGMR
Experimental: In this example, the compounds described herein were tested for their inhibitory activity against NEK2 and/or Aurora A using the HotSpot™ Kinase Assay (Reaction Biology Corp.). The assay was performed according to the manufacturer's protocol, as detailed below. The NEK2 kinase (Accession No. NP-002488) and Aurora A kinase (Accession No. NP-940839) for use in these assays was sourced from ThermoFisher Scientific (Invitrogen).
The base Reaction Buffer used in this experiment contained the following: 20 mM Hepes (pH 7.5), 10 mM MgCl2, 1 mM EGTA, 0.02% Brij™-35, 0.02 mg/ml BSA, 0.1 mM Na3VO4, 2 mM DTT, and 1% DMSO. The required cofactors were added individually to each kinase reaction.
Testing compounds were dissolved in 100% DMSO to a specific concentration. The serial dilution was conducted by Integra Viaflo Assist in DMSO.
The substrate was prepared in freshly prepared Reaction Buffer. The required cofactors were delivered to the substrate solution described above. NEK2 kinase or Aurora A kinase was delivered to the substrate solution and gently mixed. Next, the compounds in 100% DMSO were transferred to the kinase reaction mixture by Acoustic technology (Echo550; nanoliter range) and incubated for 20 min at room temperature. ^33P-ATP (Specific activity 10 μCi/μl) was delivered into the reaction mixture to initiate the reaction. The reaction was incubated for 2 hours at room temperature. Radioactivity was then detected by the filter-binding method. Kinase activity data were expressed as the percent remaining kinase activity in test samples compared to vehicle (dimethyl sulfoxide) reactions. IC50 values and curve fits were obtained using Prism (GraphPad Software).

NEK2 = biological target: T2, NEK2 (Homo sapiens, UniProt P51955); experiment: NanoBRET Target Engagement Intracellular Kinase Assay for NEK2 in transfected HEK293 cells; type: cell-based; conditions: NEK2 target engagement, read-out: NanoBRET IC50
T2 construct: expressed in transfected cells; host or cells: HEK293
T2 sequence (P51955 1-445): T1 sequence (P51955 1-445)
Experimental: In this example, the compounds described herein were tested for their inhibitory activity against NEK2 using a model of in vivo activity by the NanoBRET™ Target Engagement Intracellular Kinase Assay (Reaction Biology Corp.). The assay was performed according to the manufacturer's protocol, as detailed below.
HEK293 cells were cultivated (70-80% confluence) prior to the assay. The sample was trypsinized and HEK293 cells were collected.
To prepare lipid: DNA complexes, a 10 μg/ml solution of DNA in Opti-MEM without serum was prepared that consisted of the following ratios of carrier DNA and DNA encoding NanoLuc® fusion: 9.0 μg/ml of Transfection Carrier DNA, 1.0 μg/ml of NanoLuc fusion vector DNA and 1 ml of Opti-MEM without phenol red. The solution was mixed thoroughly. 30 μl of FuGENE HD Transfection Reagent was added into each milliliter of DNA mixture to form lipid: DNA complex. The sample was mixed by inversion 10 times and then incubated at ambient temperature for 20 minutes to allow complexes to form. In a sterile, conical tube, 1 part of lipid:DNA complex was mixed with 20 parts of HEK293 cells in suspension. The resulting sample was mixed gently by inversion 5 times. The cell and lipid: DNA complex was dispensed into a sterile tissue culture dish and incubated for 22-24 hours.
Each test compound is delivered from the compound source plate to the wells of 384-well white NBS plate by Echo 550.
Step 3. Preparation of Cells with NanoBRET™ Tracer K5 Reagent:
The medium was removed from the dish with the transfected HEK293 cells via aspiration, trypsinized and cells were allowed to dissociate from the dish. Trypsin was neutralized using medium containing serum and centrifuged at 200×g for 5 minutes to pellet the cells. The cell density was adjusted to 2×10^5 cells/ml in Opti-MEM without phenol red.
The Complete 20× NanoBRET™ Tracer K5 Reagent with Tracer Dilution Buffer was prepared according to the manufacturer's instructions. One part of Complete 20× NanoBRET™ Tracer Reagent was added to 20 parts of cells in the tube. The sample was mixed gently by inversion 10 times. Next, the cell suspension was dispensed into white, 384-well NBS plates with a final tracer K5 concentration of 2 μM. The plate was incubated at 37° C., 5% CO2 for 1 hour. A separate set of samples without tracer were prepared for background correction steps.
The plate was removed from the incubator and equilibrated to room temperature for 15 minutes. The 3× Complete Substrate plus Inhibitor Solution in Assay Medium (Opti-MEMR I Reduced Serum Medium, no phenol red) was prepared just before measuring BRET. The 3× Complete Substrate plus Inhibitor Solution was added to each well of the 384-well plate and incubated for 2-3 minutes at room temperature. The donor emission wavelength (460 nm) and acceptor emission wavelength (600 nm) were measured using the Envision 2104 plate reader.
To generate raw BRET ratio values, the acceptor emission value (600 nm) was divided by the donor emission value (460 nm) for each sample. To correct for background, the BRET ratio in the absence of tracer (average of no-tracer control samples) was subtracted from the BRET ratio of each sample.
BRET Ratio=[(Acceptor sample÷Donor sample)−(Acceptor no-tracer control÷Donor no-tracer control)]

Compound	IC50 [1]	IC50 (NEK2)
N#Cc1c(Nc2nc(Nc3ccc(CN4CCOCC4)cc3)ncc2Cl)cccc1OCc1ccccc1F [Compound 1, 2-((5-chloro-2-((4-(morpholinomethyl)phenyl)amino)pyrimidin-4-yl)amino)-6-((2-fluorobenzyl)oxy)benzonitrile]	> 15 nM	≤ 50 nM
C[C@H](Oc1cccc(Nc2nc(Nc3ccc(N4CCN(C)CC4)cc3)ncc2Cl)c1C#N)c1ccccc1F [Compound 3, (S)-2-((5-chloro-2-((4-(4-methylpiperazin-1-yl)phenyl)amino)pyrimidin-4-yl)amino)-6-(1-(2-fluorophenyl)ethoxy)benzonitrile]	≤ 5 nM	≤ 50 nM
C[C@@H](Oc1cccc(Nc2nc(Nc3ccc(N4CCN(C)CC4)cc3)ncc2Cl)c1C#N)c1ccccc1F [Compound 4, (R)-2-((5-chloro-2-((4-(4-methylpiperazin-1-yl)phenyl)amino)pyrimidin-4-yl)amino)-6-(1-(2-fluorophenyl)ethoxy)benzonitrile]	> 15 nM	> 150 nM
N#Cc1c(Nc2nc(Nc3ccc(C(=O)N4CCNCC4)cc3)ncc2Cl)cccc1OCc1ccccc1F [Compound 6, 2-((5-chloro-2-((4-(piperazine-1-carbonyl)phenyl)amino)pyrimidin-4-yl)amino)-6-((2-fluorobenzyl)oxy)benzonitrile]	> 15 nM	> 150 nM
COc1cc(N2CCNCC2)ccc1Nc1ncc(Cl)c(Nc2cccc(OCc3ccccc3F)c2C#N)n1 [Compound 7, 2-((5-chloro-2-((2-methoxy-4-(piperazin-1-yl)phenyl)amino)pyrimidin-4-yl)amino)-6-((2-fluorobenzyl)oxy)benzonitrile]	≤ 5 nM	> 150 nM
N#Cc1c(Nc2nc(Nc3ccc(N4CCNCC4)nc3)ncc2Cl)cccc1OCc1ccccc1F [Compound 8, 2-((5-chloro-2-((6-(piperazin-1-yl)73yridine-3-yl)amino)pyrimidin-4-yl)amino)-6-((2-fluorobenzyl)oxy)benzonitrile]	5 to 15 nM	> 150 nM
COc1cc(Nc2ncc(Cl)c(Nc3cccc(OCc4ccccc4F)c3C#N)n2)ccc1N1CCNCC1 [Compound 9, 2-((5-chloro-2-((3-methoxy-4-(piperazin-1-yl)phenyl)amino)pyrimidin-4-yl)amino)-6-((2-fluorobenzyl)oxy)benzonitrile]	≤ 5 nM	≤ 50 nM
COc1ccccc1COc1cccc(Nc2nc(Nc3ccc(N4CCNCC4)cc3)ncc2Cl)c1C#N [Compound 11, 2-((5-chloro-2-((4-(piperazin-1-yl)phenyl)amino)pyrimidin-4-yl)amino)-6-((2-methoxybenzyl)oxy)benzonitrile]	> 15 nM	> 150 nM
N#Cc1c(Nc2nc(Nc3ccc(N4CCNCC4)cc3)ncc2Cl)cccc1OCc1ccc(F)cc1 [Compound 13, 2-((5-chloro-2-((4-(piperazin-1-yl)phenyl)amino)pyrimidin-4-yl)amino)-6-((4-fluorobenzyl)oxy)benzonitrile]	> 15 nM	> 150 nM
N#Cc1c(Nc2nc(Nc3ccc(N4CCNCC4)cc3)ncc2Cl)cccc1OCc1cccc(F)c1 [Compound 14, 2-((5-chloro-2-((4-(piperazin-1-yl)phenyl)amino)pyrimidin-4-yl)amino)-6-((3-fluorobenzyl)oxy)benzonitrile]	> 15 nM	> 150 nM
N#Cc1c(Nc2nc(Nc3ccc(CN4CCNCC4)cc3)ncc2Cl)cccc1OCc1ccccc1F [Compound 15, 2-((5-chloro-2-((4-(piperazin-1-ylmethyl)phenyl)amino)pyrimidin-4-yl)amino)-6-((2-fluorobenzyl)oxy)benzonitrile]	5 to 15 nM	> 150 nM
N#Cc1c(Nc2nc(Nc3ccc(N4CCN(CCO)CC4)cc3)ncc2Cl)cccc1OCc1ccccc1F [Compound 17, 2-((5-chloro-2-((4-(4-(2-hydroxyethyl)piperazin-1-yl)phenyl)amino)pyrimidin-4-yl)amino)-6-((2-fluorobenzyl)oxy)benzonitrile]	≤ 5 nM	50 to 150 nM
CN1CCN(c2ccc(Nc3ncc(Cl)c(Nc4cccc(OCc5ccccc5F)c4C#N)n3)cc2)CC1 [Compound 18, 2-((5-chloro-2-((4-(4-methylpiperazin-1-yl)phenyl)amino)pyrimidin-4-yl)amino)-6-((2-fluorobenzyl)oxy)benzonitrile]	≤ 5 nM	50 to 150 nM
N#Cc1c(Nc2nc(Nc3ccc(N4CCNCC4)cc3)ncc2Cl)cccc1OCc1c(F)cccc1F [Compound 19, 2-((5-chloro-2-((4-(piperazin-1-yl)phenyl)amino)pyrimidin-4-yl)amino)-6-((2,6-difluorobenzyl)oxy)benzonitrile]	5 to 15 nM	≤ 50 nM
N#Cc1c(Nc2nc(Nc3ccc(C4CCNCC4)cc3)ncc2Cl)cccc1OCc1ccccc1F [Compound 27, 2-((5-chloro-2-((4-(piperidin-4-yl)phenyl)amino)pyrimidin-4-yl)amino)-6-((2-fluorobenzyl)oxy)benzonitrile]	≤ 5 nM	50 to 150 nM
N#Cc1c(Nc2nc(Nc3cnn(C4CCNCC4)c3)ncc2Cl)cccc1OCc1ccccc1F [Compound 31, 2-((5-chloro-2-((1-(piperidin-4-yl)-1H-pyrazol-4-yl)amino)pyrimidin-4-yl)amino)-6-((2-fluorobenzyl)oxy)benzonitrile]	5 to 15 nM	> 150 nM

Source: patent US20230090742A1, “AMINOPYRIMIDINYLAMINOBENZONITRILE DERIVATIVES AS NEK2 INHIBITORS” (Sumitomo Pharma Oncology, Inc., priority 2020, published 2023)
